{"source": "patent US12378247B2", "about": "“Mesylate salt of para-topolin, compositions containing said salt and use thereof” (USTAV EXPERIMENTALNI BOTANIKY AV CR, V. V. I., priority 2020, dated 2025)", "key": {"Disproportionation study": {"assay": "Disproportionation study", "format": "physicochemical", "details": "50 mg in 1 ml distilled water, ca. 48 hours, recrystallized", "procedure": "A 50 mg sample of crystalline para-topolin mesylate salt was dissolved in 1 ml of distilled water, kept in solution for ca. 48 hours and then crystallized and checked by XRPD for disproportionation."}, "[1]": {"assay": "Calcein AM cytotoxicity assay, HL60", "format": "cell-based", "details": "human, HL-60 cells (promyelocytic leukaemia); HL60, 3-day Calcein-AM assay; read-out: Cytotoxic activity IC50", "from_the_text": "(§1) Because toxic compounds negatively influence metabolic processes of cells, many standard cytotoxicity assays are based on measurement of metabolisation rate of various artificial substrates. Resulting product is then quantified, for example, by means of spectrometry. The assays can be easily modified for use in 96-well plates. For evaluation of cytotoxicity of the […] of this invention, a microtiter assay based on quantification of metabolisation of Calcein AM was used. The assay is widely used in drug screening programs and in chemosensitivity testing. In live cells, Calcein AM is enzymatically hydrolysed and accumulation of the resulting calcein is manifested by green fluorescence. […]\n(§2) Approximately 10,000 cells in 80 μL of medium were seeded into 96-well microtitre plates. […] The fluorescence of free calcein was then quantified using a Fluoroscan Ascent fluorometer (Microsystems), and the percentage of surviving cells in each well was calculated by dividing the OD obtained from each cell with exposed cells by the mean OD obtained from control wells×100%. […]"}, "[2]": {"assay": "Calcein AM cytotoxicity assay, K562", "format": "cell-based", "details": "human, K562 cells (chronic myelogenous leukaemia), K562, 3-day Calcein-AM assay; read-out: Cytotoxic activity IC50", "from_the_text": "as §1, §2"}, "[3]": {"assay": "Calcein AM cytotoxicity assay, G361", "format": "cell-based", "details": "human, G361 cells (malignant melanoma); G361, 3-day Calcein-AM assay; read-out: Cytotoxic activity IC50", "from_the_text": "as §1, §2"}, "[4]": {"assay": "Pharmacokinetics / bioavailability upon intraduodenal administration in rats", "format": "in vivo, male Sprague-Dawley rats", "details": "rat", "procedure": "Preparation of Dosing Solutions for In-Vivo Study: Para-topolin and para-topolin mesylate salt were stored at room temperature under desiccant and protected from light. The dosing solutions were prepared fresh from powders on the day of dosing. The dosing solution for intravenous administration (IV) was prepared at 1 mg/mL (free acid) in 50:50 DMSO: saline. The dosing solution for intraduodenal administration (ID) was prepared at 2 mg/mL in a 0.2% sodium carboxymethyl cellulose (Na CMC) aqueous solution.\nAdministration to Animals: The pharmacokinetics of para-topolin base and mesylate was evaluated in fasted male Sprague-Dawley rats. […]\nEach blood sample was collected from the rats via a jugular vein cannula and placed into chilled polypropylene tubes containing sodium heparin as an anticoagulant. […] The total concentration of para-topolin in plasma samples were analyzed by LC-MS/MS after an overnight incubation with glucuronidase/arylsulfatase enzyme mixture. Pharmacokinetic parameters were calculated using the WinNonlin software.\nAnalysis of Plasma Samples: An LC-MS/MS analytical method for the determination of […] in rat plasma was developed (Novák et al., Phytochemistry, 69, 2008:2214-2224). Prior to sample analysis, a standard curve was analyzed to determine the specificity, range, and linearity of the method. […]"}, "[5]": {"tested_on": "HL-60 (promyelocytic leukaemia)", "assay": "Calcein AM cytotoxicity assay, HL60", "format": "cell-based", "details": "HL60, 3-day Calcein-AM assay; read-out: Cytotoxic activity IC50", "from_the_text": "as §1, §2"}, "[6]": {"tested_on": "K562 (chronic myelogenous leukaemia)", "assay": "Calcein AM cytotoxicity assay, K562", "format": "cell-based", "details": "K562, 3-day Calcein-AM assay; read-out: Cytotoxic activity IC50", "from_the_text": "as §1, §2"}, "[7]": {"tested_on": "G361 (malignant melanoma)", "assay": "Calcein AM cytotoxicity assay, G361", "format": "cell-based", "details": "G361, 3-day Calcein-AM assay; read-out: Cytotoxic activity IC50", "from_the_text": "as §1, §2"}}, "note": "Where a name gives a salt, the structure may show the parent alone.", "data": [{"compound": "Oc1ccc(CNc2ncnc3nc[nH]c23)cc1", "note": "[para-topolin mesylate, 6-(4-hydroxybenzylamino) purine (para-topolin) mesylate (methylsulphonate)]", "values": [{"measurement": "Disproportionation (XRPD)", "setting": "Disproportionation study", "result": "No signs of disproportionation"}, {"measurement": "IC50 at 72 h", "setting": "[1]", "result": "> 167", "unit": "µM"}, {"measurement": "IC50 at 72 h", "setting": "[2]", "result": "> 167", "unit": "µM"}, {"measurement": "IC50 at 72 h", "setting": "[3]", "result": "> 167", "unit": "µM"}, {"measurement": "time after ID dosing at which Cmax was observed", "setting": "[4]", "result": "≤ 15", "unit": "min"}]}, {"compound": "Oc1ccc(CNc2ncnc3nc[nH]c23)cc1", "note": "[para-topolin, 6-(4-Hydroxybenzylamino) purine]", "values": [{"measurement": "IC50", "setting": "[5]", "result": "> 167", "unit": "µM"}, {"measurement": "IC50", "setting": "[6]", "result": 140, "unit": "µM"}, {"measurement": "IC50", "setting": "[7]", "result": "> 167", "unit": "µM"}]}]}
